# Results published in ChEMBL document CHEMBL3885881, “DrugMatrix”.
# Species: Rattus norvegicus
# Experiment: DrugMatrix - Regimen: Daily Repeat
# Format: toxicity, organism-based, Sprague-Dawley
# Set-up: regimen Daily Repeat, gender Male, age 6-8 weeks
# Details: in vivo, po, route oral GAVAGE, vehicle .5 % CMC; for ABSOLUTE BASOPHIL / ABSOLUTE EOSINOPHIL / ABSOLUTE LYMPHOCYTE / ABSOLUTE MONOCYTE / ABSOLUTE SEGMENTED NEUTROPHIL / BASOPHIL / EOSINOPHIL / ERYTHROCYTE COUNT / HEMATOCRIT / HEMOGLOBIN / LEUKOCYTE COUNT / LYMPHOCYTE / MEAN CORPUSCULAR HEMOGLOBIN / MEAN CORPUSCULAR HEMOGLOBIN CONCENTRATION / MEAN CORPUSCULAR VOLUME / MONOCYTE / NEUTROPHIL / NUCLEATED RED BLOOD CELLS / PLATELET COUNT: tissue Blood; for ALANINE AMINOTRANSFERASE / ALBUMIN / ALKALINE PHOSPHATASE / ASPARTATE AMINOTRANSFERASE / BLOOD UREA NITROGEN / CARBON DIOXIDE / CHLORIDE / CHOLESTEROL / CREATINE PHOSPHOKINASE / CREATININE / GLUCOSE / LACTATE DEHYDROGENASE / LIPASE / PHOSPHORUS / POTASSIUM / SODIUM / TOTAL BILIRUBIN / TOTAL PROTEIN / URIC ACID: tissue Plasma
# [1] = 200 mg/kg, 72 h, dose level Low, time 3 day
# [2] = 200 mg/kg, 120 h, dose level Low, time 5 day
# [3] = 1200 mg/kg, 72 h, dose level High, time 3 day
# [4] = 1200 mg/kg, 120 h, dose level High, time 5 day
smiles,measurement,setting,value
COc1cc(C(=O)NC2CCCNC2)cc(OC)c1OC (configuration not stated) [TROXIPIDE],ABSOLUTE BASOPHIL,[1],0 CELLS/uL
same,ABSOLUTE EOSINOPHIL,[1],136.33 CELLS/uL
same,ABSOLUTE LYMPHOCYTE,[1],11684 CELLS/uL
same,ABSOLUTE MONOCYTE,[1],203.67 CELLS/uL
same,ABSOLUTE SEGMENTED NEUTROPHIL,[1],809.33 CELLS/uL
same,BASOPHIL,[1],0%
same,EOSINOPHIL,[1],1%
same,ERYTHROCYTE COUNT,[1],5.48 x10E6/uL
same,HEMATOCRIT,[1],34.2%
same,HEMOGLOBIN,[1],12.97 G/DL
same,LEUKOCYTE COUNT,[1],12.83 x10E3/uL
same,LYMPHOCYTE,[1],91%
same,MEAN CORPUSCULAR HEMOGLOBIN,[1],23.67 pg
same,MEAN CORPUSCULAR HEMOGLOBIN CONCENTRATION,[1],37.9 G/DL
same,MEAN CORPUSCULAR VOLUME,[1],62.43 fL
same,MONOCYTE,[1],1.67%
same,NEUTROPHIL,[1],6.33%
same,NUCLEATED RED BLOOD CELLS,[1],0.33 /100WBC
same,PLATELET COUNT,[1],1247.33 x10E3/uL
same,ALANINE AMINOTRANSFERASE,[1],38.67 u/L
same,ALBUMIN,[1],4.37 G/DL
same,ALKALINE PHOSPHATASE,[1],413.67 u/L
same,ASPARTATE AMINOTRANSFERASE,[1],80 u/L
same,BLOOD UREA NITROGEN,[1],14 mg/dL
same,CARBON DIOXIDE,[1],26.33 mmol/L
same,CHLORIDE,[1],106 MEQ/L
same,CHOLESTEROL,[1],67 mg/dL
same,CREATINE PHOSPHOKINASE,[1],457.67 u/L
same,CREATININE,[1],0.16 mg/dL
same,GLUCOSE,[1],165 mg/dL
same,LACTATE DEHYDROGENASE,[1],90.67 u/L
same,LIPASE,[1],9 u/L
same,PHOSPHORUS,[1],13.6 mg/dL
same,POTASSIUM,[1],6.02 MEQ/L
same,SODIUM,[1],146.67 MEQ/L
same,TOTAL BILIRUBIN,[1],0.23 mg/dL
same,TOTAL PROTEIN,[1],5.87 G/DL
same,URIC ACID,[1],1.57 mg/dL
same,ABSOLUTE BASOPHIL,[2],0 CELLS/uL
same,ABSOLUTE EOSINOPHIL,[2],142.33 CELLS/uL
same,ABSOLUTE LYMPHOCYTE,[2],13091.33 CELLS/uL
same,ABSOLUTE MONOCYTE,[2],94.33 CELLS/uL
same,ABSOLUTE SEGMENTED NEUTROPHIL,[2],905.33 CELLS/uL
same,BASOPHIL,[2],0%
same,EOSINOPHIL,[2],1%
same,ERYTHROCYTE COUNT,[2],5.5 x10E6/uL
same,HEMATOCRIT,[2],35.17%
same,HEMOGLOBIN,[2],13.37 G/DL
same,LEUKOCYTE COUNT,[2],14.23 x10E3/uL
same,LYMPHOCYTE,[2],92%
same,MEAN CORPUSCULAR HEMOGLOBIN,[2],24.33 pg
same,MEAN CORPUSCULAR HEMOGLOBIN CONCENTRATION,[2],38.03 G/DL
same,MEAN CORPUSCULAR VOLUME,[2],63.97 fL
same,MONOCYTE,[2],0.67%
same,NEUTROPHIL,[2],6.33%
same,NUCLEATED RED BLOOD CELLS,[2],0 /100WBC
same,PLATELET COUNT,[2],1300.67 x10E3/uL
same,ALANINE AMINOTRANSFERASE,[2],40.33 u/L
same,ALBUMIN,[2],4.33 G/DL
same,ALKALINE PHOSPHATASE,[2],383 u/L
same,ASPARTATE AMINOTRANSFERASE,[2],84.33 u/L
same,BLOOD UREA NITROGEN,[2],16.67 mg/dL
same,CARBON DIOXIDE,[2],24.67 mmol/L
same,CHLORIDE,[2],109 MEQ/L
same,CHOLESTEROL,[2],69 mg/dL
same,CREATINE PHOSPHOKINASE,[2],241.67 u/L
same,CREATININE,[2],0.18 mg/dL
same,GLUCOSE,[2],177.67 mg/dL
same,LACTATE DEHYDROGENASE,[2],230 u/L
same,LIPASE,[2],9 u/L
same,PHOSPHORUS,[2],14 mg/dL
same,POTASSIUM,[2],5.49 MEQ/L
same,SODIUM,[2],147.33 MEQ/L
same,TOTAL BILIRUBIN,[2],0.23 mg/dL
same,TOTAL PROTEIN,[2],6.57 G/DL
same,URIC ACID,[2],1.8 mg/dL
same,ABSOLUTE BASOPHIL,[3],0 CELLS/uL
same,ABSOLUTE EOSINOPHIL,[3],0 CELLS/uL
same,ABSOLUTE LYMPHOCYTE,[3],8315.67 CELLS/uL
same,ABSOLUTE MONOCYTE,[3],238.67 CELLS/uL
same,ABSOLUTE SEGMENTED NEUTROPHIL,[3],579 CELLS/uL
same,BASOPHIL,[3],0%
same,EOSINOPHIL,[3],0%
same,ERYTHROCYTE COUNT,[3],5.66 x10E6/uL
same,HEMATOCRIT,[3],34.93%
same,HEMOGLOBIN,[3],13.13 G/DL
same,LEUKOCYTE COUNT,[3],9.13 x10E3/uL
same,LYMPHOCYTE,[3],91%
same,MEAN CORPUSCULAR HEMOGLOBIN,[3],23.23 pg
same,MEAN CORPUSCULAR HEMOGLOBIN CONCENTRATION,[3],37.6 G/DL
same,MEAN CORPUSCULAR VOLUME,[3],61.73 fL
same,MONOCYTE,[3],2.33%
same,NEUTROPHIL,[3],6.67%
same,NUCLEATED RED BLOOD CELLS,[3],0 /100WBC
same,PLATELET COUNT,[3],1475 x10E3/uL
same,ALANINE AMINOTRANSFERASE,[3],56 u/L
same,ALBUMIN,[3],4.5 G/DL
same,ALKALINE PHOSPHATASE,[3],344 u/L
same,ASPARTATE AMINOTRANSFERASE,[3],88 u/L
same,BLOOD UREA NITROGEN,[3],12.67 mg/dL
same,CARBON DIOXIDE,[3],27.67 mmol/L
same,CHLORIDE,[3],106.33 MEQ/L
same,CHOLESTEROL,[3],80.33 mg/dL
same,CREATINE PHOSPHOKINASE,[3],209.33 u/L
same,CREATININE,[3],0.21 mg/dL
same,GLUCOSE,[3],138.33 mg/dL
same,LACTATE DEHYDROGENASE,[3],178 u/L
same,LIPASE,[3],8.67 u/L
same,PHOSPHORUS,[3],11.63 mg/dL
same,POTASSIUM,[3],6.42 MEQ/L
same,SODIUM,[3],150.7 MEQ/L
same,TOTAL BILIRUBIN,[3],0.2 mg/dL
same,TOTAL PROTEIN,[3],6.4 G/DL
same,URIC ACID,[3],1.2 mg/dL
same,ABSOLUTE BASOPHIL,[4],0 CELLS/uL
same,ABSOLUTE EOSINOPHIL,[4],55.33 CELLS/uL
same,ABSOLUTE LYMPHOCYTE,[4],13790.67 CELLS/uL
same,ABSOLUTE MONOCYTE,[4],0 CELLS/uL
same,ABSOLUTE SEGMENTED NEUTROPHIL,[4],1154 CELLS/uL
same,BASOPHIL,[4],0%
same,EOSINOPHIL,[4],0.33%
same,ERYTHROCYTE COUNT,[4],5.99 x10E6/uL
same,HEMATOCRIT,[4],37.5%
same,HEMOGLOBIN,[4],13.97 G/DL
same,LEUKOCYTE COUNT,[4],15 x10E3/uL
same,LYMPHOCYTE,[4],92%
same,MEAN CORPUSCULAR HEMOGLOBIN,[4],23.33 pg
same,MEAN CORPUSCULAR HEMOGLOBIN CONCENTRATION,[4],37.23 G/DL
same,MEAN CORPUSCULAR VOLUME,[4],62.67 fL
same,MONOCYTE,[4],0%
same,NEUTROPHIL,[4],7.67%
same,NUCLEATED RED BLOOD CELLS,[4],0 /100WBC
same,PLATELET COUNT,[4],1467.33 x10E3/uL
same,ALANINE AMINOTRANSFERASE,[4],59.33 u/L
same,ALBUMIN,[4],4.1 G/DL
same,ALKALINE PHOSPHATASE,[4],355.33 u/L
same,ASPARTATE AMINOTRANSFERASE,[4],81.33 u/L
same,BLOOD UREA NITROGEN,[4],15.33 mg/dL
same,CARBON DIOXIDE,[4],24.33 mmol/L
same,CHLORIDE,[4],106.33 MEQ/L
same,CHOLESTEROL,[4],65.33 mg/dL
same,CREATINE PHOSPHOKINASE,[4],150 u/L
same,CREATININE,[4],0.2 mg/dL
same,GLUCOSE,[4],176 mg/dL
same,LACTATE DEHYDROGENASE,[4],88.67 u/L
same,LIPASE,[4],8.33 u/L
same,PHOSPHORUS,[4],13.83 mg/dL
same,POTASSIUM,[4],6.2 MEQ/L
same,SODIUM,[4],146.57 MEQ/L
same,TOTAL BILIRUBIN,[4],0.17 mg/dL
same,TOTAL PROTEIN,[4],6.17 G/DL
same,URIC ACID,[4],2.43 mg/dL
